Measurements published in patent US10196362B2, “Carbamate compound and use thereof” (SUMITOMO CHEMICAL COMPANY, LIMITED, priority 2015, dated 2019).

How the values were obtained:
[1] = system: wheat speckled leaf blotch fungus (Septoria tritici); test: Test Example 5: wheat speckled leaf blotch, foliar spray pot test; assay type: in vivo; conditions: wheat (Apogee), 500 ppm foliar spray, Formulation Example 6, inoculated after 4 days
[2] = system: soybean rust (Phakopsora pachyrhizi); test: Test Example 7: soybean rust, foliar spray pot test; assay type: in vivo; conditions: soybean (Kurosengoku), 200 ppm foliar spray, Formulation Example 6, inoculated after 4 days

`COC(=O)N(OC)c1ccccc1COc1ccc(-n2nc(C)cc2C)cc1C` [methyl N-(2-{[2-methyl-4-(3,5-dimethyl-1H-pyrazol-1-yl)phenoxy]methyl}phenyl)-N-methoxy carbamate] was tested, and the “area of the lesion on treated plant relative to untreated plant” value [1] was ≥ 70%.
In the case of `COC(=O)Nc1ccccc1COc1ccc(-n2cccn2)cc1` [methyl N-(2-{[4-(1H-pyrazol-1-yl)phenoxy)methyl}phenyl)carbamate], the “area of the lesion on treated plant relative to untreated plant” value [2] is reported as ≥ 70%.
